Data on 39 molecules can be found in patent publication US20230150980A1, “COLLAGEN 1 TRANSLATION INHIBITORS AND METHODS OF USE THEREOF” (Anima Biotech Inc., priority 2020, published 2023).

The structures appear in SMILES notation.

The experiment deals with collagen 1. Description: WI-38 collagen 1 inhibition assay (anti-Collagen I immunofluorescence).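 Further: minus sign means inactive.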 Particulars: cellular EC50, WI-38 human lung fibroblasts, values are LogEC50 classes. It counts as cell-based. The method, then: WI-38 cells (ATCC® CCL-75™) were maintained in MEM EAGLE (NEAA) W. GLUTAMIN (Biological Industries, Cat. 06-1040-15-1A) containing 10% fetal bovine serum (FBS) and 1% Penicillin-Streptomycin Solution. To synchronize the cells (cell cycle synchronization) prior to induction of collagen synthesis, the cells were starved using DMEM-low glucose supplemented with 0.25% FBS for two hours and then without FBS for 24 hours. To induce collagen synthesis, the cells were treated with a collagen induction cocktail for the indicated time. Compounds were added with induction.
Cells in 96-well or 384-well plates were fixed for 20 min in 4% paraformaldehyde (PFA, ENCO, Cat. sc-281692). Following two washes with 1×PBS, cells were treated with hydrogen peroxide (Acros, Cat: 7722-84-1) for 10 minutes and then washed twice with 1×PBS. Cells were then incubated over-night at 4° C. with Anti-Collagen I (Sigma-Aldrich, Cat: C 2456) antibody and washed three times with 1×PBS. Cell were then incubated with a suitable secondary fluorescently-tagged antibody and nuclei stained with DAPI, for 1 hour, and then washed 3 times with 1×PBS.
Cell images were taken with Operetta (Perkin Elmer, USA), a wide-field fluorescence microscope at 20× magnification. After acquisition, the images were transferred to Columbus software (Perkin-Elmer) for image analysis. In Columbus, cells were identified by their nucleus, using the “Find Nuceli” module and cytoplasm was detected based on the secondary antibody channel. Subsequently, the fluorescent signal was enumerated in the identified cell region. Data was exported to a data analysis and visualization software, Tibco Spotfire, USA.
On to `FC(F)(F)c1ccc2nc(CN3CCN(c4ccccc4)CC3)[nH]c2c1` [compound 200], for which the “COL1 Efficacy (LogEC50)” value is “−”.

For the molecule `c1ccc2[nH]c(CN3CCC(c4ccncc4)CC3)cc2c1` [compound 269, 2-[[4-(4-pyridyl)-1-piperidyl]methyl]-1H-indole], the “COL1 Efficacy (LogEC50)” value is listed as “−”. As for `c1ccc2[nH]c(CN3CCN(c4cc(-n5cccn5)ncn4)CC3)nc2c1` [compound 208], the “COL1 Efficacy (LogEC50)” value is “++ (++: −5 to −6)”. For `c1cncc(CN2CCN(Cc3cc4ccccc4[nH]3)CC2)c1` [Compound 218, 2-[[4-(3-pyridylmethyl)piperazin-1-yl]methyl]-1H-indole] the value was “+ (+: >−5)”; for `Brc1ccc2[nH]c(CN3CCN(c4ccncc4)CC3)cc2c1` [compound 215, 5-bromo-2-[[4-(4-pyridyl)piperazin-1-yl]methyl]-1H-indole], “−”.

Turning to `N#Cc1c(CN2CCN(c3ccncc3)CC2)[nH]c2ccccc12` [compound 280, 2-[[4-(4-pyridyl)piperazin-1-yl]methyl]-1H-indole-3-carbonitrile], the “COL1 Efficacy (LogEC50)” value is reported as “−”. For `c1ccc2oc(CN3CCN(c4ccncn4)CC3)nc2c1` [compound 281, 2-[(4-pyrimidin-4-ylpiperazin-1-yl)methyl]-1,3-benzoxazole hemiformate] the value was “+ (+: >−5)”; for `Cc1ncnc(N2CCN(Cc3nc4ccccc4o3)CC2)c1F` [compound 309, 2-((4-(5-fluoro-6-methylpyrimidin-4-yl)piperazin-1-yl)methyl)benzo[d]oxazole], “++ (++: −5 to −6)”; for `Clc1cccc2cc(CN3CCN(c4ccncc4)CC3)[nH]c12` [compound 247, 7-chloro-2-[[4-(4-pyridyl)piperazin-1-yl]methyl]-1H-indole], “+++ (+++: <−6)”.

With `c1ccc(N2CCN(Cc3cc4ccccc4[nH]3)CC2)nc1` [Compound 216, 2-[[4-(2-pyridyl)piperazin-1-yl]methyl]-1H-indole], the “COL1 Efficacy (LogEC50)” value is on record as “+ (+: >−5)”. The same measure for `Cc1ncnc(N2CCN(Cc3nc4cccc(F)c4o3)CC2)c1C` [compound 305, 2-((4-(5,6-dimethylpyrimidin-4-yl)piperazin-1-yl)methyl)-7-fluorobenzo[d]oxazole]: “++ (++: −5 to −6)”; for `FC(F)(F)c1ccc2cc(CN3CCN(c4ccncc4)CC3)[nH]c2c1` [compound 255, 2-[[4-(4-pyridyl)piperazin-1-yl]methyl]-6-(trifluoromethyl)-1H-indole]: “+++ (+++: <−6)”. For `Cc1cc2c(N3CCN(Cc4nc5ccccc5[nH]4)CC3)ncnc2s1` [compound 205] the value was “++ (++: −5 to −6)”; for `CCn1cc(N2CCN(Cc3nc4ccccc4o3)CC2)nn1` [compound 328], “−”; for `Cn1cnc(N2CCN(Cc3nc4ccccc4o3)CC2)n1` [compound 326, 2-((4-(1-methyl-1H-1,2,4-triazol-3-yl)piperazin-1-yl)methyl)benzo[d]oxazole], “+ (+: >−5)”. For `c1cc(N2CCN(Cc3cc4ccncc4[nH]3)CC2)ccn1` [compound 270, 2-[[4-(4-pyridyl)piperazin-1-yl]methyl]-1H-pyrrolo[2,3-c]pyridine] the value was “−”; for `O=C(Nc1ccc2[nH]c(CN3CCN(c4ccncc4)CC3)cc2c1)c1ccccc1` [compound 249, N-[2-[[4-(4-pyridyl)piperazin-1-yl]methyl]-1H-indol-5-yl]benzamide], “+++ (+++: <−6)”; for `c1ccn2nc(CN3CCN(c4ccncc4)CC3)cc2c1` [compound 283, 2-((4-(pyridin-4-yl)piperazin-1-yl)methyl)pyrazolo[1,5-a]pyridine 2,2,2-trifluoroacetate], “−”. On to `Cc1ncnc(N2CCN(Cc3nc4ccc(F)cc4o3)CC2)c1C(N)=O` [compound 333], for which the “COL1 Efficacy (LogEC50)” value was “−”. With `Cc1ncnc(N2CCN(Cc3nc4ccccc4o3)CC2)c1C=O` [compound 336, 4-(4-(benzo[d]oxazol-2-ylmethyl)piperazin-1-yl)-6-methylpyrimidine-5-carbaldehyde], the “COL1 Efficacy (LogEC50)” value is “++ (++: −5 to −6)”. Consider `c1ccc2[nH]c(CN3CCN(c4ccncn4)CC3)cc2c1` [Compound 213, 2-((4-(pyrimidin-4-yl)piperazin-1-yl)methyl)-1H-indole], for which the “COL1 Efficacy (LogEC50)” value is “+++ (+++: <−6)”. The same measure for `c1ccc2[nH]c(CN3CCC4(CCN(c5ccncc5)C4)C3)cc2c1` (stereo not drawn) [compound 272, 7-(1H-indol-2-ylmethyl)-2-(4-pyridyl)-2,7-diazaspiro[4.4]nonane]: “−”; for `c1ccc2[nH]c(CN3CC4(C3)CN(c3ccncc3)C4)cc2c1` [compound 271, 2-[[2-(4-pyridyl)-2,6-diazaspiro[3.3]heptan-6-yl]methyl]-1H-indole]: “−”; for `c1ccc2[nH]c(CN3C[C@@H]4CN(c5ccncc5)C[C@@H]4C3)cc2c1` [compound 285, 2-[[(3aS,6aR)-5-(4-pyridyl)-1,3,3a,4,6,6a-hexahydropyrrolo[3,4-c]pyrrol-2-yl]methyl]-1H-indole]: “−”. On to `Cc1ncnc(N2CCN(Cc3nc4ccccc4o3)CC2)c1C` [compound 259, 2-[[4-(5,6-dimethylpyrimidin-4-yl)piperazin-1-yl]methyl]-1,3-benzoxazole], for which the “COL1 Efficacy (LogEC50)” value is recorded as “+++ (+++: <−6)”.

In the case of `c1ccc2[nH]c(CN3CCN(c4nccc5occc45)CC3)cc2c1` [Compound 235, 4-[4-(1H-indol-2-ylmethyl)piperazin-1-yl]furo[3,2-c]pyridine], the “COL1 Efficacy (LogEC50)” value was “+ (+: >−5)”. As for `Cc1ncnc(N2CCN(Cc3nc4ccc(C(F)F)cc4o3)CC2)c1C` [compound 304, 6-(difluoromethyl)-2-((4-(5,6-dimethylpyrimidin-4-yl)piperazin-1-yl)methyl)benzo[d]oxazole], the “COL1 Efficacy (LogEC50)” value is reported as “+++ (+++: <−6)”. `C#CCCC1(CCOc2cncnc2N2CCN(Cc3cc4ccccc4[nH]3)CC2)N=N1` [compound 337, 2-((4-(5-(2-(3-(but-3-yn-1-yl)-3H-diazirin-3-yl)ethoxy)pyrimidin-4-yl)piperazin-1-yl)methyl)-1H-indole]: the “COL1 Efficacy (LogEC50)” value is recorded as “++ (++: −5 to −6)”.

Regarding `c1ccc2[nH]c(CN3CCN(c4ccnc5ccccc45)CC3)cc2c1` [Compound 236, 4-[4-(1H-indol-2-ylmethyl)piperazin-1-yl]quinolone], the “COL1 Efficacy (LogEC50)” value is “++ (++: −5 to −6)”. In the case of `Cc1ncnc(N2CCN(Cc3nc4ccc(F)cc4o3)CC2)c1Cl` [compound 327, 2-((4-(5-chloro-6-methylpyrimidin-4-yl)piperazin-1-yl)methyl)-6-fluorobenzo[d]oxazole], the “COL1 Efficacy (LogEC50)” value was “++ (++: −5 to −6)”. For `CCc1cncnc1N1CCN(Cc2nc3ccc(OCCOC)cc3[nH]2)CC1` [compound 290, 2-((4-(5-ethylpyrimidin-4-yl)piperazin-1-yl)methyl)-6-(2-methoxyethoxy)-1H-benzo[d]imidazole] the value was “++ (++: −5 to −6)”. The same measure for `Cn1cc(N2CCN(Cc3cc4ccc(F)cc4[nH]3)CC2)nn1` [compound 331]: “−”; for `Cc1ncnc(N2CCN(Cc3nc4ccncc4o3)CC2)c1C` [compound 330, 2-((4-(5,6-dimethylpyrimidin-4-yl)piperazin-1-yl)methyl)oxazolo[5,4-c]pyridine]: “++ (++: −5 to −6)”. For `Cc1ncnc(N2CCN(Cc3nc4ccccc4o3)CC2)c1C(F)(F)F` [compound 311, 2-((4-(6-methyl-5-(trifluoromethyl)pyrimidin-4-yl)piperazin-1-yl)methyl)benzo[d]oxazole] the value was “+ (+: >−5)”; for `Cc1ncnc(N2CCN(Cc3nc4ccc(F)cc4o3)CC2)c1C` [compound 301, 2-((4-(5,6-dimethylpyrimidin-4-yl)piperazin-1-yl)methyl)-6-fluorobenzo[d]oxazole], “+++ (+++: <−6)”; for `Clc1ccc2cc(CN3CCN(c4ccncc4)CC3)[nH]c2c1` [compound 240, 6-chloro-2-[[4-(4-pyridyl)piperazin-1-yl]methyl]-1H-indole], “+ (+: >−5)”. On to `FC(F)(F)c1ccc2nc(CN3CCN(c4ccncn4)CC3)[nH]c2c1` [Compound 203, 2-((4-(pyrimidin-4-yl)piperazin-1-yl)methyl)-6-(trifluoromethyl)-1H-benzo[d]imidazole], for which the “COL1 Efficacy (LogEC50)” value was “++ (++: −5 to −6)”. For `O=C(Nc1ccccc1)c1ccc2[nH]c(CN3CCN(c4ccncc4)CC3)cc2c1` [compound 250, N-phenyl-2-[[4-(4-pyridyl)piperazin-1-yl]methyl]-1H-indole-5-carboxamide] the value was “+ (+: >−5)”; for `Clc1cccc2[nH]c(CN3CCN(c4ccncc4)CC3)cc12` [compound 243, 4-chloro-2-[[4-(4-pyridyl)piperazin-1-yl]methyl]-1H-indole], “−”.
